Test results as given in publication PMC11627468, “Novel enzyme‐resistant pancreatic polypeptide analogs evoke pancreatic beta‐cell rest, enhance islet cell turnover, and inhibit food intake in mice” (Biofactors (Oxford, England), 2024).
Starred links: 1 amine or outer side, 2 acyl side, 3 side chain; linkers in the order of their positions; H or OH if unused. Residues, ends and D or L forms follow the SMILES beside them. Groups on a side chain read outwards from the residue. No end group written: not given here. *: point of attachment. γGlu = O=C(O)[C@H](CCC(=O)[*:2])N[*:1]; Palmitoyl = CCCCCCCCCCCCCCCC(=O)*

Legend:
BRIN‐BD11 beta‐cells [1] = assay: Beta‐cell proliferation (Ki‐67 staining); assay type: cell-based; settings: versus control cultures, n = 3
Protocol: (§1) To assess the effects of PP and related peptides (10^−8 and 10^−6 M) on beta‐cell proliferation and apoptosis, BRIN‐BD11 beta‐cells were seeded onto sterilized, clear‐glass coverslips (16 mm diameter) and placed in 12‐well plates (Falcon Ltd) at a density of 40,000 cells per well and cultured for 18 h. Media control (11.1 mM glucose), GLP‐1 (10^−8 and 10^−6 M), and a cytokine cocktail mix (IL‐1β [100 U/mL], IFNγ [20 U/mL], TNFα [200 U/mL], Sigma Aldrich, UK) were employed as controls, as appropriate. Cells were then rinsed with PBS and fixed using 4% paraformaldehyde. After antigen retrieval with sodium citrate buffer at 95°C for 20 min, blocking was performed using 2% bovine serum albumin (BSA) for 45 min. For proliferation studies, the slips were then incubated at 37°C with rabbit anti‐Ki‐67 primary antibody (Abcam, ab15580), and subsequently with Alexa Fluor® 488 secondary antibody. Coverslips were mounted onto polylysine‐coated microscope slides using a 50:50 glycerol:PBS solution and stored at 4°C until required for analysis. To assess the ability of PP peptides to protect against cytokine‐induced apoptosis, cells were seeded, washed, and fixed as above, with the exception that the media was supplemented with the cytokine mix. The slips were then incubated at 37°C with TUNEL reaction mix for 60 min (Roche Diagnostics, Germany), and mounted onto microscope slides. To assess receptor specificity, co‐incubation of PP peptides with the well characterized NPY4R antagonist, (S)‐VU0637120,[24] at 10^−5 M was employed for beta‐cell proliferation experiments, conducted as detailed above. All slides were viewed using a fluorescent microscope (Olympus System Microscope, model BX51; Southend‐on‐Sea, UK) and photographed by DP70 camera adapter system. Proliferation/TUNEL positive frequency was determined using the cell‐counter function on ImageJ Software and expressed as % of total cells analyzed.

C57BL/6 mice [2] = assay: Acute food intake in overnight fasted mice; assay type: in vivo
Protocol: (§2) Acute in vivo studies were conducted in groups (n = 6) of 4‐month‐old male C57BL/6 mice (Envigo, Huntington, UK). All mice were maintained on standard rodent chow (10% fat, 30% protein, and 60% carbohydrate; Trouw Nutrition, Northwich, UK), and drinking water provided ad libitum. Mice were housed individually and kept in a temperature‐controlled environment (22 ± 2°C), with a 12‐h light/dark cycle. Experiments were carried out in accordance with the UK Animal Scientific Procedures Act 1986 as well as being approved by Ulster University Animal Ethics Review Committee (AWERB) committee and protected by the UK Home Office Animal project license number PPL2902, approved on April 26, 2021. Acute effects of test peptides on food intake were tested in overnight (16 h) fasted mice. Briefly, fasted mice were administered an intraperitoneal (i.p.) injection of saline vehicle (0.9% (w/v) NaCl) alone or in combination with test peptides (each at 25, 75, or 200 nmol/kg bw) and cumulative food intake measured at regular intervals, to assess the pharmacodynamic profile of the test peptides. For food intake studies, mice were provided with preweighed rodent maintenance diet in their food hopper at t = 0 min, which was then re‐weighed at each timepoint with all due care taken to account for any wastage or crumbling of the food pellets. In this regard, the investigator was present at all times during the 180‐min test period to ensure accuracy and consistency in all measurements. Furthermore, effects of PP or related peptides (25 nmol/kg bw) on glucose homeostasis and insulin secretion were evaluated in overnight fasted mice following i.p. injection of glucose alone (18 mmol/kg bw) or in combination with PP peptides (each at 25 nmol/kg bw).

DPP-4 = test system: T1, DPP-4; assay: In vitro DPP‐4 degradation; assay type: in vitro ADME, human; settings: purified human DPP-4 enzyme; peptide 50 μg with purified human DPP‐4 (5 μL, 0.01 U/L), 37°C, 8 h; stopped with 10% (v/v) trifluoroacetic acid; rp‐HPLC C‐18, UV 214 nm; peaks by MALDI‐MS; read-out: % intact peptide after 8 h DPP‐4 incubation
T1 construct: purchased Sigma-Aldrich
Protocol: PP peptides (50 μg) were incubated at 37°C for 0–8 h with 5 μL of purified human DPP‐4 enzyme (0.01 U/L, Sigma‐Aldrich, Gillingham, UK). Degradation reactions were terminated via the addition of 10 μL 10% (v/v) trifluoroacetic acid/water solution. Reaction mixes were separated by reverse phase rp‐HPLC using a Phenomenex C‐18 analytical column (250 × 4.6 mm^2) with UV absorbance detection at 214 nm (ThermoQuest SpectraSystem UV2000 detector). HPLC peaks of interest were collected and analyzed by MALDI‐TOF MS on a Perseptive Biosystems Voyager‐DE Biospectrometry (Hertfordshire, UK).

C57BL/6 mice [3] = assay: Glucose‐stimulated plasma insulin in mice; assay type: in vivo; settings: n = 6; for glucose‐induced insulin secretion (plasma insulin): peptide 25 nmol/kg with glucose 18 mmol/kg i.p., versus glucose control
Protocol: as §2, with “bw). […] Blood glucose was measured immediately using a hand‐held Ascencia Contour blood glucose meter (Bayer Healthcare, Newbury, Berkshire, UK). For plasma insulin, blood was collected in chilled fluoride/heparin‐coated microcentrifuge tubes (Sarstedt, Numbrecht, Germany) and centrifuged using a Beckman microcentrifuge (Beckman Instruments, Galway, Ireland) for 10 min at 12,000 rpm. Plasma was separated and stored at −20°C, until determination of plasma insulin by radioimmunoassay.[23]” for “bw).”

C57BL/6 mice [4] = assay: Glucose tolerance in mice; assay type: in vivo; settings: exendin‐4 0.25 nmol/kg or CCK‐8 25 nmol/kg with glucose 18 mmol/kg i.p., versus glucose control; n = 6
Protocol: as §2, with “bw). […] Blood glucose was measured immediately using a hand‐held Ascencia Contour blood glucose meter (Bayer Healthcare, Newbury, Berkshire, UK). […]” for “bw).”

BRIN‐BD11 beta‐cells [5] = assay: Protection against cytokine‐induced beta‐cell apoptosis (TUNEL); assay type: cell-based; settings: peptides 10^−8 and 10^−6 M, cytokine cocktail IL‐1β 100 U/mL, IFNγ 20 U/mL, TNFα 200 U/mL, n = 3
Protocol: as §1, with “The slips were then incubated at 37°C with TUNEL reaction mix for 60 min (Roche Diagnostics, Germany), and mounted onto microscope slides. To assess receptor specificity, co‐incubation of PP peptides with the well characterized NPY4R antagonist, (S)‐VU0637120,[24] at 10^−5 M was employed for beta‐cell proliferation experiments, conducted as detailed above. All slides were viewed using a fluorescent microscope (Olympus System Microscope, model BX51; Southend‐on‐Sea, UK) and photographed by DP70 camera adapter system.” left out

## CCCCCCCCCCCCCCCC(=O)N[C@@H](CCC(=O)NCCCC[C@H](NC(=O)[C@H](C)NC(=O)[C@H](CC(N)=O)NC(=O)[C@H](CC(=O)O)NC(=O)CNC(=O)[C@@H]1CCCN1C(=O)[C@H](Cc1ccc(O)cc1)NC(=O)[C@@H](NC(=O)[C@@H]1CCCN1C(=O)[C@H](CCC(=O)O)NC(=O)[C@H](CC(C)C)NC(=O)[C@@H]1CCCN1C(=O)[C@H](C)N)C(C)C)C(=O)N1CCC[C@H]1C(=O)N[C@@H](CCC(=O)O)C(=O)N[C@@H](CCC(N)=O)C(=O)N[C@@H](CCSC)C(=O)N[C@@H](C)C(=O)N[C@@H](CCC(N)=O)C(=O)N[C@@H](Cc1ccc(O)cc1)C(=O)N[C@@H](C)C(=O)N[C@@H](C)C(=O)N[C@@H](CC(=O)O)C(=O)N[C@@H](CC(C)C)C(=O)N[C@@H](CCCNC(=N)N)C(=O)N[C@@H](CCCNC(=N)N)C(=O)N[C@@H](Cc1ccc(O)cc1)C(=O)N[C@H](C(=O)N[C@@H](CC(N)=O)C(=O)N[C@@H](CCSC)C(=O)N[C@@H](CC(C)C)C(=O)N[C@H](C(=O)N[C@@H](CCCNC(=N)N)C(=O)N1CCC[C@H]1C(=O)N[C@@H](CCCNC(=N)N)C(=O)N[C@@H](Cc1ccc(O)cc1)C(N)=O)[C@@H](C)O)[C@@H](C)CC)C(=O)O [[K^13Pal]PP] (H-APLEPVYPGDNAK([γGlu-Palmitoyl])PEQMAQYAADLRRYINMLTRPRY-NH2; N-terminus assumed)
BRIN‐BD11 beta‐cells [1]; peptide 10^−8 M
  BRIN‐BD11 cell proliferation: augmented
C57BL/6 mice [2]; PP peptide 25 nmol/kg with exendin‐4 0.25 nmol/kg i.p., fasted mice, n = 6
  food intake in combination with exendin‐4: additive appetite suppressive actions
C57BL/6 mice [2]; i.p., overnight fasted mice
  food intake in overnight fasted mice, summary in discussion: retained impressive effects to restrict food intake

## CC[C@H](C)[C@H](NC(=O)[C@H](Cc1ccc(O)cc1)NC(=O)[C@H](CCCNC(=N)N)NC(=O)[C@H](CCCNC(=N)N)NC(=O)[C@H](CC(C)C)NC(=O)[C@H](CC(=O)O)NC(=O)[C@H](C)NC(=O)[C@H](C)NC(=O)[C@H](Cc1ccc(O)cc1)NC(=O)[C@H](CCC(N)=O)NC(=O)[C@H](C)NC(=O)[C@H](CCSC)NC(=O)[C@H](CCC(N)=O)NC(=O)[C@H](CCC(=O)O)NC(=O)[C@@H]1CCCN1C(=O)[C@@H](NC(=O)[C@H](C)NC(=O)[C@H](CC(N)=O)NC(=O)[C@H](CC(=O)O)NC(=O)CNC(=O)[C@@H]1CCCN1C(=O)[C@H](Cc1ccc(O)cc1)NC(=O)[C@@H](NC(=O)[C@@H]1CCCN1C(=O)[C@H](CCC(=O)O)NC(=O)[C@@H]1CCCN1C(=O)[C@@H]1CCCN1C(=O)[C@H](C)N)C(C)C)[C@@H](C)O)C(=O)N[C@@H](CC(N)=O)C(=O)N[C@@H](CCSC)C(=O)N[C@@H](CC(C)C)C(=O)N[C@H](C(=O)N[C@@H](CCCNC(=N)N)C(=O)N1CCC[C@H]1C(=O)N[C@@H](CCCNC(=N)N)C(=O)N[C@@H](Cc1ccc(O)cc1)C(N)=O)[C@@H](C)O [[P^3]PP]
DPP-4
  remaining at 8 h: > 99%

## (N‐Pal)APLEPVYPGDNATPEQMAQYAADLRRYINMLTRPR‐NH2 [[N‐Pal]PP, PP analog with C‐16 palmitate via γ‐glutamyl spacer at the N‐terminal amino group]
C57BL/6 mice [2]; 200 nmol/kg i.p., overnight fasted mice, later observation points, versus saline, n = 6
  cumulative food intake (appetite suppression): mild inhibitory (p < 0.05) effect
C57BL/6 mice [3]
  glucose‐induced insulin secretion (plasma insulin): slightly decreasing (p = <0.05 to 0.01)

## (N‐Pal)APPEPVYPGDNATPEQMAQYAADLRRYINMLTRPR‐NH2 [[N‐Pal,P^3]PP, PP analog with Pro^3 and N‐terminal C‐16 palmitate via γ‐glutamyl spacer]
C57BL/6 mice [2]; all doses employed (25, 75, 200 nmol/kg i.p.), overnight fasted mice, n = 6
  cumulative food intake (appetite suppression): lacked bioactivity
C57BL/6 mice [3]
  glucose‐induced insulin secretion (plasma insulin): slightly decreasing (p = <0.05 to 0.01)

## CCK‐8: used for cholecystokinin (CCK) receptor activation in combination studies (DYMGWMDF; ends and bridges not checked; UniProt P06307 96-103, looked up)
C57BL/6 mice [2]; CCK‐8 25 nmol/kg i.p., early observation points, versus saline, n = 6
  food intake (appetite suppression), CCK‐8 alone: impressive effects on appetite suppression (p < 0.001)
C57BL/6 mice [4]
  glucose disposal, exendin‐4 or CCK‐8: benefits
C57BL/6 mice [3]; exendin‐4 0.25 nmol/kg or CCK‐8 25 nmol/kg with glucose 18 mmol/kg i.p.
  insulinotropic action, exendin‐4 or CCK‐8: significant insulinotropic actions

## glucagon‐like peptide‐1 (HAEGTFTSDVSSYLEGQAAKEFIAWLVKGR; ends and bridges not checked; UniProt P01275 98-127, looked up) [GLP‐1, positive control in proliferation and apoptosis tests]
BRIN‐BD11 beta‐cells [1]; peptide 10^−6 M
  BRIN‐BD11 cell proliferation: significantly (p < 0.001) enhanced
BRIN‐BD11 beta‐cells [1]; peptide 10^−8 M
  BRIN‐BD11 cell proliferation: significantly (p < 0.001) enhanced
BRIN‐BD11 beta‐cells [5]
  protection against cytokine‐induced beta‐cell apoptosis: significantly (p = <0.01 to 0.001) protected against cell death
